Test results as given in article PMC6362118, “Pharmacophore-guided discovery of CDC25 inhibitors causing cell cycle arrest and tumor regression” (Scientific Reports, 2019).
Read-outs that look alike come from different tables or passages of the source.

Assays:
PP1a = test: Compound profiling, phosphatase panel (Eurofins); format: biochemical; conditions: relative to DMSO
Excerpt: (§1) 125 Compound profiling - Selected compounds were profiled against a panel of protein
(§2) 126 phosphatases at Eurofins Pharma Discovery Services Ltd., Dundee, UK.

PTPN2 (TCPTP) = test: Compound profiling, phosphatase panel (Eurofins); format: biochemical; conditions: relative to DMSO
Excerpt: as §1, §2

PTPN1 (PTP1B) = test: Compound profiling, phosphatase panel (Eurofins); format: biochemical; conditions: relative to DMSO
Excerpt: as §1, §2

CDC25A = biological target: T1, CDC25A (Homo sapiens, UniProt P30304); test: Enzymatic assay (OMFP substrate) on recombinant CDC25A; format: biochemical; conditions: for remaining activity at 20 µM: compound 20 µM, relative to DMSO control; for IC50: dose-response on recombinant CDC25A
T1 construct: GST (pGEX vector) (N); made in house; host or cells: E. coli BL21
T1 sequence (P30304 1-524): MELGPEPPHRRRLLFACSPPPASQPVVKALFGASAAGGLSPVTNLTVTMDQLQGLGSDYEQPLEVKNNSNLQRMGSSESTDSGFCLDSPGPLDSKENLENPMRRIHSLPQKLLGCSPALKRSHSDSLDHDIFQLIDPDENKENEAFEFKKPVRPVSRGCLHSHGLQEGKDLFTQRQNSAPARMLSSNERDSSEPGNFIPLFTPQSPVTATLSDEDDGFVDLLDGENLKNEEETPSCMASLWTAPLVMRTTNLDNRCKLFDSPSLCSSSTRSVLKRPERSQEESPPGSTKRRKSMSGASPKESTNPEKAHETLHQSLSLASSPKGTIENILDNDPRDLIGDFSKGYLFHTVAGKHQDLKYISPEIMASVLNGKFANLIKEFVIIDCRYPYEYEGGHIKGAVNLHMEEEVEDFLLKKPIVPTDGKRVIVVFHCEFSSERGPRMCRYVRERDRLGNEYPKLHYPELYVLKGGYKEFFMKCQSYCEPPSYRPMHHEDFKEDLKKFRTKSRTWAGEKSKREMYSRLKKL
Method: 57 UPD compounds were dissolved in DMSO at 10 mM stock concentration and stored in
60 Expression and purification of CDC25 phosphatases - CDC25A (kind gift of I.
61 Hoffmann, Heidelberg, Germany), CDC25B and CDC25C (kind gift of B. Gabrielli,
62 Queensland, Australia) in pGEX were expressed in E. coli BL21 cells and purified on 1
63 ml Glutathione Sepharose 4 Fast Flow columns as described 1.
65 Enzymatic assays - CDC25A, CDC25B and CDC25C were appropriately diluted in 10
66 mM Tris-HCl pH 8.0, 50 mM NaCl and assayed in 20 mM Tris-HCl pH 8.0, 75 mM
67 NaCl, 0.5 mM EGTA, 1 mM DTT, 0.1 mg/ml BSA and defined concentrations of
68 compounds. Reactions were started by addition of the substrate OMFP (0.1 mM). Assays
69 were carried out at room temperature in duplicate or triplicate using transparent-bottom,
70 V-shaped 96 well plates and read at defined intervals on a Molecular Devices
71 SpectraMax microplate reader (ex: 490 nm / em: 525 nm). IC50 and kinetic parameters
72 calculated from Lineweaver-Burk double-reciprocal plots of the data were obtained using
73 GraphPad Prism software. […]

HeLa cells [1] = test: Flow cytometric analysis of cell cycle progression (DNA content) in HeLa cells; format: cell-based; conditions: for effect on the G2/M transition: double-thymidine synchronized HeLa, 10 μM added 5 h upon release, analysed 12 h post-release; for progression through S-phase: HeLa, 10 µM added at release from double-thymidine block (early S-phase); for effect on cell cycle distribution (DNA content): asynchronous HeLa cells, 10 μM, 15 h
Method: Reactions were started by addition of the substrate OMFP (0.1 mM). Assays 69 were carried out at room temperature in duplicate or triplicate using transparent-bottom, 70 V-shaped 96 well plates and read at defined intervals on a Molecular Devices 71 SpectraMax microplate reader (ex: 490 nm / em: 525 nm). IC50 and kinetic parameters 72 calculated from Lineweaver-Burk double-reciprocal plots of the data were obtained using 73 GraphPad Prism software. 74 75 Cell culture - Wild-type HeLa and Kyoto HeLa cells stably expressing mCherry-H2B 76 were maintained in DMEM+L-Glutamine (Gibco, Life Technologies, USA) 77 supplemented with 5% fetal calf serum (FCS) (Gibco) and penicillin-streptomycin (100 […] A549 and Colo741 were grown and maintained like HeLa 79 cells but with 10% FCS. HCT116 were maintained in McCoy's medium supplemented 80 with 10% FCS and penicillin-streptomycin. U2OS-Tet-OFF cells expressing HA-CDC25 81 were grown and maintained in DMEM+L-Glutamine, 10% Tet-free FCS and penicillin- 82 streptomycin in the presence or the absence of 4 μg/ml tetracycline (Sigma, T7660). 83 84 Cell synchronization - Cell synchronization was performed by double thymidine block- 85 release protocol 2 or nocodazole treatment 3 and verified by flow cytometry. 86 87 Cell viability assays - Compounds viability upon 48h treatment with the compounds was 88 assessed as described 4. Data were plotted with Prism 7® and analyzed by non-linear 89 regression. Comparison of single curve fitting to all data set within an experiment was 90 performed with the extra sum-of-squares F-test to determine P values. 91 92 Western blotting - Cell lysis and immunoblot analysis were performed as previously 93 described 5. […] Cells were washed with PBS, resuspended […] To 100 quantify phosphorylation of CDK1 at Tyr15 and H2AX at S139, cells were harvested and 101 examined as described 6. Samples were measured on an AttuneTM NxT Cytometer 102 (ThermoFisher Scientific, Carlsbad, CA, USA) and data were analyzed with FlowJo® 103 software v10 (FlowJo, LLC, Ashland, OR, USA). 104 105 Real Time qRT-PCR - Organoids were lysed in Tri-Reagent (Sigma) as previously 106 described 7 and total RNA was isolated as described by manufacturer's instructions. For […] 108 High Fidelity cDNA Synthesis kit (Roche). Real-time quantitative PCR reactions were 109 performed in three independent biological replicates, each with technical triplicate, using 110 the Applied Biosystems SYBR Green Kit and monitored by the ABI Prism 7900HT 111 system (Applied Biosystem). The following primers were used: 112 Lgr5: Forward [NT] and Reverse 5'- […] 114 Lysozyme: Forward [NT] and Reverse 5'- 115 [NT]3' 116 Cryptdin: Forward [NT] and Reverse 5'- 117 [NT]-binding protein (TBP): Forward [NT] and 119 Reverse [NT] 120 […] 122 amplification curves and the melting temperature analysis of the final amplification […] 4

HeLa cells [2] = test: Cell viability assay on HeLa cells; format: cell-based; conditions: Homo sapiens, 48h treatment
Method: 75 Cell culture - Wild-type HeLa and Kyoto HeLa cells stably expressing mCherry-H2B
76 were maintained in DMEM+L-Glutamine (Gibco, Life Technologies, USA)
77 supplemented with 5% fetal calf serum (FCS) (Gibco) and penicillin-streptomycin (100
78 U/ml - 100 µg/ml) (Gibco). […]
87 Cell viability assays - Compounds viability upon 48h treatment with the compounds was
88 assessed as described 4. Data were plotted with Prism 7® and analyzed by non-linear
89 regression. Comparison of single curve fitting to all data set within an experiment was
90 performed with the extra sum-of-squares F-test to determine P values. […]

[3] = read-out: % remaining activity ± SD (Table S1, first round of selection)

remaining activity (%) (PP1a; UPD-795 1 µM) | remaining activity (%) (PTPN2 (TCPTP); UPD-795 1 µM) | remaining activity (%) (PTPN1 (PTP1B); UPD-795 1 µM) | remaining activity at 20 µM (CDC25A; read-out: % remaining activity ± SD (Table S2, second round of selection)) | mechanism of enzyme inhibition (CDC25A; kinetic analysis, mixed-model inhibition equation) | Ki (CDC25A; mixed-model inhibition equation) | SMILES | remaining activity (%) (PP1a; UPD-140 1.5 µM) | remaining activity (%) (PTPN2 (TCPTP); UPD-140 1.5 µM) | remaining activity (%) (PTPN1 (PTP1B); UPD-140 1.5 µM) | remaining activity at 20 µM (CDC25A; [3]) | IC50 (CDC25A) | effect on the G2/M transition (HeLa cells [1]) | IC50 (HeLa cells [2]) | effect on the G1/S transition (HeLa cells [1]; HeLa synchronized at G2/M, 10 μM added in mid-G1, analysed 12 h post-release) | progression through S-phase (HeLa cells [1]) | effect on cell cycle distribution (DNA content) (HeLa cells [1])
 |  |  |  |  |  | O=C1C=C(c2ccc(O)cc2O)C(=O)c2c(O)cccc21 [UPD-140, 2-(2′,4′-dihydroxyphenyl)-8-hydroxy-1,4-naphthoquinone] | 89 ± 2% | 87 ± 8% | 95 ± 5% | 0.1 ± 0.1% | 1420 nM | accretion of the G2/M peak | 1200 nM |  |  | 
 |  |  |  |  |  | O=C1C(c2ccc(O)cc2O)=CC(=O)c2c(O)cccc21 [UPD-176, 5-hydroxy-2-(2,4-dihydroxyphenyl)naphthalene-1,4-dione] |  |  |  | 0% |  | accretion of the G2/M peak | 1080 nM | effectively blocked cells in G1 | progression through S-phase was effectively held in check | accumulation of cells at G2/M
88 ± 1% | 99 ± 2% | 94 ± 7% | 0% | mixed mechanism of enzyme inhibition | 1180 ± 400 nM | COc1cccc(SC2=CC(=O)c3cccc(O)c3C2=O)c1 [UPD-795, 2-(3-methoxyphenylthio)-8-hydroxynaphthalene-1,4-dione] |  |  |  |  | 1250 nM |  |  |  | progression through S-phase was effectively held in check | increase of the G1 population
